Source: US20070021348A1, “Novel treatment” (SmithKline Beecham Corp., & SmithKline Beecham, p.l.c., priority 1999, published 2007)
Starred links: 1 amine or outer side, 2 acyl side, 3 side chain; linkers in the order of their positions; H or OH if unused. Non-standard residues stand in square brackets, D forms with d. Residues, ends and D or L forms follow the SMILES beside them. *: point of attachment. Hexanoyl(5S-NH,4S-OH,6-Ph) = O=C(CC[C@H](O)[C@H](Cc1ccccc1)N[*:1])[*:2]; X2 = C[C@H](C[C@H](O)[C@H](Cc1ccccc1)N[*:1])C(=O)[*:2]; X3 = Nc1ccc2c(c1)Oc1ccccc1C21OC(=O)c2cc(C(=O)*)ccc21; X1 = CC(C)C[C@H](N[*:1])[C@@H](O)CCC(=O)[*:2]

Tests used:
Asp2-Fc enzyme [1] = biological target: T1, Asp2-Fc enzyme (Homo sapiens, UniProt P56817); test: Fluorescence Resonance Energy Transfer (FRET) cleavage assay for Asp2; format: biochemical; conditions: 0.5 uM fluorescent Swedish variant APP beta-site peptide substrate, 25 nM enzyme, pH 3.8
T1 construct: A cDNA fragment encoding Asp 2, amino acids 1 to 460; made in house; host or cells: CHO E1A (derived from DG-44), secreted, purified on Protein A
Method: Preparation of Asp 2—Fc Fusion Protein (Asp 2(1-460)-Fc)
A cDNA fragment encoding Asp 2, amino acids 1 to 460 (EP855444 but with 130 Glu->Val), was subcloned to create a fusion protein with human immunoglobulin, residues 99-330 of IgGI, and cloned into the mammalian expression vector pCDN (Aiyar et al). The plasmid was linearized by digestion with Not 1 (15 ug DNA, 37′C, overnight), sterially precipitated and resuspended into 50 ul 1 X TE buffer (10 mM Tris, 1 mM EDTA, pH 7.5). […]
A peptide (X) based on the sequence of the Swedish variant APP beta-site sequence has been doubly labelled for use in a FRET assay. […] This would allow cleavage of the intervening peptide sequence by Asp2 to be monitored by energy transfer between the two fluorescent groups.
The fluorescent peptide substrate (0.5 uM) was incubated with Asp2-Fc enzyme, prepared as described above, in a buffer containing 50 mM sodium acetate, 20 mM sodium chloride, 5% glycerol, 0.1% CHAPS (3-[(3-Cholamidopropyl) dimethylammonio]-1-propane-sulphonate), pH 3.8). The assays were started by addition of enzyme (25 nM final concentration) and cleavage monitored on a fluorescent platereader with 485 nm excitation, 538 nm emission. […]
This assay was used to determine IC50 and Ki values for compounds of interest. […] Asp 2 Fluorescence Polarisation Assay.

Asp2-Fc enzyme [2] = biological target: T1, Asp2-Fc enzyme; test: Asp 2 fluorescence polarisation assay, Kd of labelled ligand; conditions: ligand 1-100 nM, enzyme from 100 nM down in twofold dilutions, pH 4.0, 15 min equilibration, anisotropy; read-out: Kd for the tight binding interaction
Method: A competition assay has also been designed to identify compounds acting at the Asp2 active site. The hydroxyethylene inhibitor, (I), has been modified by addition of 5-, 6-rhodamine green to the free N-terminal amine of the compound to create labelled ligand (III). [drawing 4] The resulting compound was tested experimentally as follows to determine the Kd with Asp2-Fc enzyme, prepared as above.
A three dimensional analysis varying enzyme and compound (III) was performed. Ligand concentration range was 1, 3, 10, 30 and 100 nM. Enzyme concentration range was from 100 nM down in serial twofold dilutions (11 dilutions+no enzyme control). Ligand of appropriate concentration was prepared in 5% DMSO. The enzyme solutions were prepared in 2 times (×2) assay buffer (where ×1=50 mM sodium acetate, 20 mM sodium chloride, 5% glycerol, 0.1% CHAPS, pH 4.0). 5 ul of the enzyme solution (of varying concentration) was mixed with 5 ul of the ligand (of varying concentration) in a low volume 384 microtitre plate. The samples were allowed to equilibrate for 15 min before the fluorescence polarisation was read on an LJL Acquest platereader.
The Anisotropy values were plotted and the Kd for the tight binding interaction obtained.

Asp2-Fc enzyme [3] = biological target: T1, Asp2-Fc enzyme; test: Asp 2 fluorescence polarisation competition assay against labelled ligand (III); format: binding
Method: Enzyme (at a fixed concentration of 25 nM), ligand (III) (at a fixed concentration of 2.5 nM) and test compound (10 uM down in twofold serial dilutions) were mixed in ×1 assay buffer (50 mM 50 mM sodium acetate, 20 mM sodium chloride, 5% glycerol, 0.1% CHAPS, pH 3.8) in a final assay volume of 10 ul and allowed to equilibrate for 3 hrs. The fluorescence polarisation was then read. The experiment was performed in duplicate.

Structure (SMILES): CC(C)[C@H](NC(=O)[C@@H](N)CCC(=O)O)C(=O)N[C@@H](CC(N)=O)C(=O)N[C@@H](Cc1ccccc1)[C@@H](O)CCC(=O)N[C@@H](C)C(=O)N[C@@H](CCC(=O)O)C(=O)N[C@@H](Cc1ccccc1)C(=O)O [(I)] (H-EVN[Hexanoyl(5S-NH,4S-OH,6-Ph)]AEF-OH)
- Ki (Asp2-Fc enzyme [1]): 7.7 nM

Structure (SMILES): CC(C)[C@H](NC(=O)[C@@H](N)CCC(=O)O)C(=O)N[C@@H](CC(N)=O)C(=O)N[C@@H](Cc1ccccc1)[C@@H](O)C[C@@H](C)C(=O)N[C@@H](C)C(=O)N[C@@H](CCC(=O)O)C(=O)N[C@@H](Cc1ccccc1)C(=O)O [(II)] (H-EVN[X2]AEF-OH)
- Ki (Asp2-Fc enzyme [1]): 7.3 nM

Structure (SMILES): CC(C)[C@H](NC(=O)[C@H](CCC(=O)O)NC(=O)c1ccc2c(c1)C(=O)OC21c2ccccc2Oc2cc(N)ccc21)C(=O)N[C@@H](CC(N)=O)C(=O)N[C@@H](Cc1ccccc1)[C@@H](O)CCC(=O)N[C@@H](C)C(=O)N[C@@H](CCC(=O)O)C(=O)N[C@@H](Cc1ccccc1)C(=O)O (stereo partly drawn) [(III)] (X3-EVN[Hexanoyl(5S-NH,4S-OH,6-Ph)]AEF-OH)
- Kd (Asp2-Fc enzyme [2]): 1.22 nM

Structure (SMILES): CC(C)C[C@H](NC(=O)[C@H](C)NC(=O)[C@@H](NC(=O)[C@@H](N)CCC(=O)O)C(C)C)[C@@H](O)CCC(=O)N[C@@H](C)C(=O)N[C@@H](CCC(=O)O)C(=O)N[C@@H](Cc1ccccc1)C(=O)O [Compound (IV)] (H-EVA[X1]AEF-OH)
- Ki (Asp2-Fc enzyme [3]; 25 nM enzyme, 2.5 nM ligand (III), pH 3.8, 3 hrs equilibration, duplicate): 67.5 nM
- displacement of the fluorescent ligand (III) (Asp2-Fc enzyme [3]; at the highest concentrations of test compound (10 uM down in twofold serial dilutions)): Complete displacement
